Laboratory results reported in publication PMC4552634, “A New Set of Chemical Starting Points with Plasmodium falciparum Transmission-Blocking Potential for Antimalarial Drug Discovery” (PLoS ONE, 2015).
Where two headings read alike, the source gives them in different places. Each block holds one compound with its values, some of them ahead of it.

Tests used:
[1] = tested on: P. falciparum stage V gametocytes; assay: Gametocytocidal ATP bioluminescence assay (single point 5 μM and 1 μM, dose-response); type: cell-based, Plasmodium falciparum; details: for Ratio IC50 HepG2/IC50 P. falciparum: IC50 HepG2 divided by IC50 P. falciparum gametocytes
[2] = Cytotoxicity in HepG2 cells (intracellular ATP, ATPlite, 48 h); type: cell-based, human; details: human, HepG2 cells
[3] = tested on: luciferase reaction (BacTiter-Glo); assay: Interference assay (inhibition of the BacTiter-Glo luciferase reaction); type: biochemical; set-up: concentration or dose not given beside the values; details: ATP interference assay
Method: To discard possible false-positive results, we performed an interference assay in parallel. […] […]. The ATP solution was made by dissolving ATP powder (ATP standard from the ATPlite 1 step assay kit, reference 6016731, Perkin Elmer) in culture medium. The positive control used was the Luciferase Inhibitor I Calbiochem (Merck, 119113) at 100 μM.

[4] = tested on: P. falciparum asexual stages; details: TCAMS data, cited from earlier work
HepG2 cells = assay: Cytotoxicity in HepG2 cells (intracellular ATP, ATPlite, 48 h); type: cell-based, human; details: HepG2 cells; IC50 per ratio column head; unit inferred
[5] = tested on: P. falciparum stage V gametocytes; assay: microbe, parasite or virus in culture; set-up: BacTiter-Glo ATP luminescence viability of purified stage V gametocytes in 384-well plates, per cent inhibition versus DMSO; details: Plasmodium falciparum, 48 h, read-out: % Inhibition
[6] = Plasmodium falciparum, P. falciparum gametocytes, average, read-out: IC50 Pf Gametocytes average, IC50 (µM) average
[7] = sexual stages (gametocytes), dose-response, read-out: IC50 sexual
[8] = IC50 per ratio column head, unit inferred, read-out: Cytotoxicity in HepG2
[9] = asexual stages, read-out: IC50 asexual
[10] = P. falciparum asexual stages, read-out: IC50 (µM) Pf asexual stages
[11] = Plasmodium falciparum, sexual stages (gametocytes), dose-response, read-out: IC50 sexual
[12] = HepG2, 48 h exposure, intracellular ATP, read-out: IC50 (μM) Cytotoxicity HepG2
[13] = P. falciparum gametocytes, average, read-out: IC50 Pf Gametocytes average, IC50 (µM) average

Compound: COc1ccc(C[C@H](N)C(=O)N[C@H]2[C@@H](O)[C@H](n3cnc4c(N(C)C)ncnc43)O[C@@H]2CO)cc1 [TCMDC-123493]
- Ratio IC50 HepG2/IC50 P. falciparum [1]: 5
- IC50 [1, 6]: 0.56 µM
- IC50 [1, 7]: 0.563 µM
- IC50 at 48 h [2, 8]: 2.95 µM
- % Control luminiscence [3]: 100%
- IC50 [4, 9]: 0.174 µM

Compound: Cl.c1ccc2c(NCCCCCCNc3c4ccccc4nc4ccccc34)c3ccccc3nc2c1 [TCMDC-124285]
- Ratio IC50 HepG2/IC50 P. falciparum [1]: 28
- IC50 ([1]; Plasmodium falciparum, read-out: IC50 Pf Gametocytes average, IC50 (µM) average): 0.25 µM
- IC50 [1, 7]: 0.247 µM
- IC50 ([2]; IC50 per ratio column head, unit inferred): 7000 nM
- % Control luminiscence [3]: 100%
- IC50 [4, 9]: 0.753 µM

Compound: CC[C@H]1CN2CCc3cc(OC)c(OC)cc3[C@@H]2C[C@@H]1C[C@H]1NCCc2cc(OC)c(OC)cc21 [TCMDC-125531]
- IC50 [1, 6]: 0.35 µM
- IC50 [1, 11]: 0.347 µM
- IC50 at 48 h [2, 12]: 21 µM
- IC50 at 48 h [2, 8]: 21 µM
- % Control luminiscence [3]: 95%
- IC50 [4, 10]: 0.21 µM
- IC50 [4, 9]: 0.214 µM

Compound: S=C(NN=Cc1ccccn1)Nc1ccc2c(c1)OCCO2 [TCMDC-132009]
- Ratio IC50 HepG2/IC50 P. falciparum [1]: 4
- IC50 [1, 6]: 0.83 µM
- IC50 at 48 h [2, 8]: 3.28 µM
- % Control luminiscence [3]: 100%
- IC50 [4, 9]: 1.05 µM

Compound: NC1CCN(Cc2ccc(-c3ccc(-c4nc5cc(F)ccc5[nH]4)cc3)cc2)C1 (stereo not shown) [TCMDC-133872]
- Ratio IC50 HepG2/IC50 P. falciparum [1]: 9
- IC50 [1, 6]: 0.83 µM
- IC50 [1, 11]: 0.827 µM
- IC50 at 48 h [2, 12]: 7 µM
- IC50 at 48 h [2, 8]: 7.25 µM
- % Control luminiscence [3]: 100%
- IC50 [4, 10]: 0.18 µM
- IC50 [4, 9]: 0.184 µM

Compound: Fc1ccc2[nH]c(-c3ccc(-c4ccc(CN5CCC(CCN6CCCCC6)CC5)cc4)cc3)nc2c1 [TCMDC-133924]
- Ratio IC50 HepG2/IC50 P. falciparum [1]: 12
- IC50 [1, 6]: 0.46 µM
- IC50 at 48 h [2, 8]: 5.3 µM
- % Control luminiscence [3]: 100%
- IC50 [4, 9]: 0.129 µM

Compound: Fc1ccc2[nH]c(-c3ccc(-c4ccc(CN5CCC(CCN6CCCCC6)CC5)cc4)s3)nc2c1 [TCMDC-133932]
- Ratio IC50 HepG2/IC50 P. falciparum [1]: 27
- IC50 [1, 6]: 0.14 µM
- IC50 at 48 h [2, 8]: 3.79 µM
- % Control luminiscence [3]: 100%
- IC50 [4, 9]: 0.142 µM

Compound: Fc1ccc2[nH]c(-c3cccc(-c4ccc(CN5CCC(CCN6CCCCC6)CC5)cc4)c3)nc2c1 [TCMDC-133940]
- Ratio IC50 HepG2/IC50 P. falciparum [1]: 12
- IC50 [1, 6]: 0.43 µM
- IC50 [1, 7]: 0.433 µM
- IC50 at 48 h [2, 8]: 5.2 µM
- % Control luminiscence [3]: 100%
- IC50 [4, 9]: 0.142 µM

Compound: FC(F)(F)c1ccc2[nH]c(-c3ccc(-c4cccc(CN5CCC(CCN6CCCCC6)CC5)c4)cc3)nc2c1 [TCMDC-133941]
- Ratio IC50 HepG2/IC50 P. falciparum [1]: 6.67
- IC50 [1, 6]: 0.51 µM
- IC50 at 48 h [2, 8]: 3.4 µM
- % Control luminiscence [3]: 100%
- IC50 [4, 9]: 0.153 µM

Compound: CCc1ccc(CN2CCC(CNC(=O)c3cc(-c4cccc(F)c4)cs3)C2)cc1 (stereo not shown) [TCMDC-134432]
- Ratio IC50 HepG2/IC50 P. falciparum [1]: 6
- IC50 [1, 6]: 1.26 µM
- IC50 [1, 7]: 1.26 µM
- IC50 at 48 h [2, 8]: 7.22 µM
- % Control luminiscence [3]: 100%
- IC50 [4, 9]: 1.36 µM

Compound: COc1ccc(-c2cnc3[nH]cc(-c4ccncc4)c3c2)cc1OC [TCMDC-135853]
- Ratio IC50 HepG2/IC50 P. falciparum [1]: 3.46
- IC50 [1, 6]: 0.9 µM
- IC50 [1, 7]: 0.897 µM
- IC50 at 48 h [2, 8]: 3.1 µM
- % Control luminiscence [3]: 92%
- IC50 [4, 9]: 0.126 µM

Compound: O=C(Nc1cccc(Oc2ccccc2)c1)N[C@H]1CCN(Cc2ccc(OCCCN3CCCCC3)cc2)C1 [TCMDC-141785]
- Ratio IC50 HepG2/IC50 P. falciparum [1]: 3
- IC50 [1, 13]: 1.13 µM
- IC50 (HepG2 cells): 3520 nM
- % Control luminiscence [3]: 100%
- IC50 [4, 9]: 0.724 µM

Compound: COc1ccc2c(NN=Cc3ccc(OC)c4ccccc34)cc(C)nc2c1 [TCMDC-142218]
- Ratio IC50 HepG2/IC50 P. falciparum [1]: 10
- IC50 [1, 13]: 0.77 µM
- IC50 [1, 7]: 0.773 µM
- IC50 (HepG2 cells): 7860 nM
- % Control luminiscence [3]: 97%
- inhibition at 5 µM [5]: 97.5%
- IC50 [4, 9]: 0.599 µM

More lines, main results first:

- % Control luminiscence [3]: 100%
Compound: [O-][s+]1c(Cl)c(-c2ccc(Cl)cc2)c2ccc(Cl)cc21 (stereo not shown) [TCMDC-124011]
- IC50 [1, 6]: 0.02 µM
- IC50 at 48 h [2, 8]: 12.8 µM
- IC50 [4, 9]: 0.993 µM

- % Control luminiscence [3]: 100%
Compound: CCOc1ccc(-c2nonc2NC(=O)c2cccc(Cl)c2)cc1OCC [TCMDC-125200]
- IC50 [1, 6]: 0.84 µM
- IC50 at 48 h [2, 8]: > 25 µM
- IC50 [4, 10]: 0.15 µM
- IC50 [4, 9]: 0.147 µM

- % Control luminiscence [3]: 100%
Compound: Cc1cccnc1Nc1nc(-c2ccccn2)cs1 [TCMDC-125846]
- Ratio IC50 HepG2/IC50 P. falciparum [1]: 30
- IC50 [1, 6]: 0.1 µM
- IC50 at 48 h [2, 8]: 3.02 µM
- IC50 [4, 9]: 0.687 µM

- % Control luminiscence [3]: 100%
Compound: Cc1cccc2nc(-c3cccc(-c4cccc(CNCCN5CCNCC5)c4)c3)[nH]c12 [TCMDC-132873]
- Ratio IC50 HepG2/IC50 P. falciparum [1]: 16
- IC50 [1, 6]: 0.5 µM
- IC50 [1, 7]: 0.497 µM
- IC50 at 48 h [2, 8]: 7.76 µM
- IC50 [4, 9]: 0.97 µM

- % Control luminiscence [3]: 100%
Compound: COc1cc(-c2cc(-c3ccc(S(C)(=O)=O)cc3)cnc2N)ccc1O [TCMDC-133343]
- IC50 [1, 6]: 1.24 µM
- IC50 [1, 11]: 1.24 µM
- IC50 at 48 h [2, 8]: > 25 µM
- IC50 [4, 10]: 0.1 µM
- IC50 [4, 9]: 0.101 µM

- % Control luminiscence [3]: 100%
Compound: Cc1cccc2nc(-c3ccc(-c4cccc(CN5CCC(CCN6CCCCC6)CC5)c4)s3)[nH]c12.O=C(O)C(F)(F)F [TCMDC-133923]
- Ratio IC50 HepG2/IC50 P. falciparum [1]: 8
- IC50 [1, 6]: 0.46 µM
- IC50 [1, 11]: 0.463 µM
- %_Inh ([1]; gametocytes, primary screen at 5 μM (S10 Table, MCSI analogs)): 107.301%
- IC50 at 48 h [2, 8]: 3.87 µM
- IC50 [4, 9]: 0.14 µM

- % Control luminiscence [3]: 100%
Compound: Cc1cccc2nc(-c3ccc(-c4ccc(CN5CCC(CCN6CCCCC6)CC5)cc4)cc3)[nH]c12 [TCMDC-133929]
- Ratio IC50 HepG2/IC50 P. falciparum [1]: 14
- IC50 [1, 6]: 0.27 µM
- IC50 [1, 7]: 0.267 µM
- IC50 at 48 h [2, 8]: 3.7 µM
- IC50 [4, 9]: 0.144 µM

- % Control luminiscence [3]: 100%
Compound: Cc1cc(F)ccc1-c1nc(NCC(O)CNCCc2ccccc2)nc2c1ccc(=O)n2-c1c(F)cccc1F (stereo not shown) [TCMDC-141784]
- Ratio IC50 HepG2/IC50 P. falciparum [1]: 37
- IC50 [1, 13]: 0.23 µM
- IC50 (HepG2 cells): 8470 nM
- IC50 [4, 9]: 0.539 µM
